According to US20080274998A1, “Disaccharide Molecules and Derivatives Thereof and Methods of Using Same” (YEDA RESEARCH AND DEVELOPMENT CO. LTD., priority 2004, published 2008):

B1: recombinant moesin: Recombinant human moesin residues 1-577, expressed in E. coli as GST fusion and cleaved with thrombin (protein, UniProt P26038 2-577, looked up)
Moesin: PKTISVRVTTMDAELEFAIQPNTTGKQLFDQVVKTIGLREVWFFGLQYQDTKGFSTWLKLNKKVTAQDVRKESPLLFKFRAKFYPEDVSEELIQDITQRLFFLQVKEGILNDDIYCPPETAVLLASYAVQSKYGDFNKEVHKSGYLAGDKLLPQRVLEQHKLNKDQWEERIQVWHEEHRGMLREDAVLEYLKIAQDLEMYGVNYFSIKNKKGSELWLGVDALGLNIYEQNDRLTPKIGFPWSEIRNISFNDKKFVIKPIDKKAPDFVFYAPRLRINKRILALCMGNHELYMRRRKPDTIEVQQMKAQAREEKHQKQMERAMLENEKKKREMAEKEKEKIEREKEELMERLKQIEEQTKKAQQELEEQTRRALELEQERKRAQSEAEKLAKERQEAEEAKEALLQASRDQKKTQEQLALEMAELTARISQLEMARQKKESEAVEWQQKAQMVQEDLEKTRAELKTAMSTPHVAEPAENEQDEQDENGAEASADLRADAMAKDRSEEERTTEAEKNERVQKHLKALTSELANARDESKKTANDMIHAENMRLGRDKYKTLRQIRQGNTKQRIDEFESM
modifications: GST tag removed by thrombin
notes: Recombinant human moesin residues 1-577, expressed in E. coli as GST fusion and cleaved with thrombin

Assays:
Jurkat cells = assay: 51Cr-labeled Jurkat cell adhesion to fibronectin; assay type: cell-based; conditions: DS-9267 100 ng/ml; fibronectin 1 μg/ml; adherent cells determined after 30 minutes
Protocol: The amount of adherent cells was determined 30 minutes later. Non-adherent cells were washed away and the remaining bound cells were lysed. The radioactivity of lysates, representing the amount of fibronectin-adherent cells, was determined using a γ-counter. The results represent the percentage of cells that were bound to the wells from total cells that were added to each well.
Jurkat cells, a CD4+ T-lymphoma cell line, were maintained in medium consisted of RPMI 1640 (Bet Haemek, Israel), supplemented with 10% cosmic calf serum (HyClone Laboratories), 2 mM L-glutamin and 1% Pen-Strep (Bet Haemek, Israel), at 37° C., in an atmosphere of 5% CO2.
It was shown that certain heparin- and heparan sulfate-derived DS induced, in a dose-dependent manner, the adhesion of human T cells to both ECM and immobilized fibronectin (6). This adhesion appears to involve β1 integrin recognition and activation and is associated with specific intracellular activation pathways (6). Since moesin is expressed on T cells, antibody to moesin was examined for the potential to block the ability of DS to induce adhesion in T cells.

T cells = assay: T cell adhesion to fibronectin-coated wells after DS pretreatment and activation; assay type: cell-based, human; conditions: T cells pretreated with DS at 1 ng/ml, 30 minutes; chemoattractants MIP-1β, SDF-1α or RANTES 20 ng/ml each
Protocol: T cells were pretreated with DS9392 (A), DS9267 or DS8892 (B), at 1 ng/ml, 30 minutes incubation for each, and were then seeded on fibronectin (FN)-coated microtiter wells and activated with either PMA (50 ng/ml), anti-CD3 mAb (15 μg/ml), IL-2 (10 IU/ml) or one of the chemoattractants, MIP-Iβ, SDF-Iα or RANTES (20 ng/ml each). T cell adhesion was then measured.
Human T cells were purified from the peripheral blood of healthy donors. Briefly, human peripheral blood was isolated on Ficoll gradients, washed, resuspended in PBS containing 3% heat-inactivated FCS (Bet Haemek, Israel), and incubated (45 min, 37° C., 7% CO2-humidified atmosphere) on nylon-wool columns (NovaMed; Jerusalem, Israel). Non-adherent cells were eluted and washed, and platelets were removed by centrifugation (700 rpm, 15 min, 18° C.). Residual monocytes were removed by incubation of the cells on tissue culture plates (2 h, 37° C.), after which non-adherent cells were collected. The CD3^+ content of these PBLs was >95%.
Without wishing to be limited by a single hypothesis, binding of the DS to moesin would appear to promote inhibition of T-cell adhesion and migration.

recombinant moesin = target: T1, recombinant moesin (Homo sapiens, UniProt P26038); assay: Binding of heparin-disaccharide to immobilized recombinant moesin (plate assay, anti-heparan sulfate mAb detection); conditions: plates coated with recombinant moesin or purified BSA, detection with anti-heparan sulfate mAb and anti-rat IgM Ab, duplicate
T1 construct: The plasmid pGEX-KG-human moesin residues 1-577 (pGhuMo); GST (cleaved yes); made in house; host or cells: Escherichia coli
T1 sequence (P26038 whole entry, the tested form may be a part): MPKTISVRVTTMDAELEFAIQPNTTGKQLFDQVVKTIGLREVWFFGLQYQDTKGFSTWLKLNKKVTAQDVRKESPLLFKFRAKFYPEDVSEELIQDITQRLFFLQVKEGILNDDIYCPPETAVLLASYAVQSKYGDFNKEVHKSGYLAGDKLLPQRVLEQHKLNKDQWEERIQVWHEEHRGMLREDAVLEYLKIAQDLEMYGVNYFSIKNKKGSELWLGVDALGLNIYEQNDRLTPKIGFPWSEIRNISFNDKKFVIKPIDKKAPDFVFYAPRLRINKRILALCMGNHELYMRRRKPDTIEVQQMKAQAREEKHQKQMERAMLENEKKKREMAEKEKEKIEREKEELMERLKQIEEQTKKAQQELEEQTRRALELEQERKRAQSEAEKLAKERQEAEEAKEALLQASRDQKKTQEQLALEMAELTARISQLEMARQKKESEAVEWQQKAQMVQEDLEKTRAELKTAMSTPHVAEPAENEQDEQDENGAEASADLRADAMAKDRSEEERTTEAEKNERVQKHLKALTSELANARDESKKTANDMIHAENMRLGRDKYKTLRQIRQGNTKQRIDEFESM
Protocol: Following coating, DS-9392 was added to the plates, incubated and washed. Detection was performed using an anti-heparan sulfate mAb followed by an anti-rat IgM Ab. Each experiment was performed in duplicate. The results represent mean and SD.
The plasmid pGEX-KG-human moesin residues 1-577 (pGhuMo) (provided by Prof. Furthhmayer [Stanford, Calif.]) contains human moesin as a fusion protein to glutathione S-transferase (GST). Escherichia coli (E. coli) bacteria were transformed with pGhuMo and grown in L-broth containing penicillin (100 μg/ml). These bacteria were induced to express the fusion protein with 100 μM isopropyl β-D-thiogalactopyranoside (IPTG). The recombinant protein was bound to a glutathione-agarose column (Sigma) and cleaved with thrombin (Pharmacia; Piscataway, N.J.). The purified protein was dialyzed against PBS at 4° C. and stored at −70^cC. The purity and integrity of the protein were determined by size separation using SDS-polyaclrylamide gel electrophoresis (PAGE), Coomassie blue staining, and Western blotting with the anti-human moesin mAb clone 38/87. The protein was quantitated by densitometric analysis of recombinant moesin and known amounts of BSA, which were used to construct a standard curve.
Since moesin binds to heparin and heparan sulfate (1), disaccharide (DS) derived from heparin was also tested to see if it could also bind to moesin.

HT-29 cells = assay: TNFα-induced IL-8 / IL-1β secretion from HT-29 cells (ELISA); assay type: cell-based; conditions: DS-9267 pre-incubated 30 min with increasing concentrations of recombinant human moesin; TNFα-stimulated HT-29 cells, 24 hours
Protocol: Following culture, the cells were pre-incubated for 30 minutes with either anti-moesin or control antibody (anti HSP-60). Then DS-9267 was added for 30 minutes, after which TNFα (200 ng/ml) was added and the cells were incubated for additional 20 hours. Subsequently, the supernatants were collected and the level of IL-8 was determined.
Following culture, the cells were supplemented with fresh medium and the DS-9267 which was pre-incubated for 30 minutes with recombinant moesin at the indicated concentrations was added to all cells except for the controls. The culture was continued for 24 hours. Subsequently, the supernatants were collected and assayed for the concentrations of IL-8 (A) and IL-1β (B).
Epithelial cells were grown as confluent monolayer's in 24-well tissue culture plates. […] Following culture, the supernatants were harvested and analyzed for cytokine secretion. […]
IL-8 concentration was measured by ELISA. […] IL-1β concentration was measured by an ELISA kit (Genzyme, Cambridge, Mass.) according to the manufacturer's instructions.
It has been shown that disaccharide molecules derived from heparin and from heparan sulfate can inhibit the secretion of IL-8 and IL-1β by HT-29 cells. […] Subsequently, the cells were treated with TNFα and the secretion of IL-8 was assessed. […]

Molecule	Jurkat cell adhesion to fibronectin (Jurkat cells)	chemokine-mediated T cell adhesion to fibronectin (T cells)	binding to immobilized recombinant moesin versus BSA (recombinant moesin)	binding to immobilized recombinant moesin versus BSA (recombinant moesin; listed as Heparin-DS)	effect of recombinant moesin on the inhibitory effect of DS on IL-8 and IL-1β secretion (HT-29 cells)
O=C(O)C1=CC(O)C(OS(=O)(=O)O)C(OC2C(COS(=O)(=O)O)OC(O)C(NS(=O)(=O)O)C2O)O1 (stereo not drawn) [DS-9267, 2-O-sulfate-4-deoxy-4-en-iduronic acid-(alpha.-1,4)-2-deoxy-2-N-sulfate-6-O-sulfateglucosamine]	induced	specifically inhibits chemokine-mediated T cell adhesion			
O=C(O)C1=CC(O)C(OS(=O)(=O)O)C(OC2C(CO)OC(O)C(NS(=O)(=O)O)C2O)O1 (stereo not drawn) [DS-9392, 2-O-Sulfate-4-deoxy-4-en-iduronic acid-(alpha-1,4)-2-deoxy-2-N-sulfateglucosamine]		specifically inhibits chemokine-mediated T cell adhesion	The difference was significant	binds to moesin, and not to BSA	
B1					antagonized the inhibitory effect of the DS in a dose-dependent manner
